In patent US8309550B2, “Kinase inhibitors and their use as pharmaceutical agents” (Shanghai Genomics, Inc., priority 2011, dated 2012):
Where two headings read alike, the source gives them in different places.

How the values were obtained:
CDK1/cyclinB = target: T1, CDK1/cyclinB (Homo sapiens, UniProt P06493); assay: Z'-LYTE kinase assay CDK1/cyclinB; format: biochemical
T1 construct: purchased Invitrogen PV3292
Outline: (§1)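 Z′-LYTE FRET assay with recombinant human enzymes; CDK1/cyclinB and CDK5/p35 at 0.8 ng/reaction on Ser/Thr 12 peptide. Compound and kinase incubated 1 hr at room temperature in 20 μM ATP, HEPES pH 7.5, MgCl2, EGTA, Brij-35, then developed 1 hr. Phosphorylation derived from 445/520 nm emission ratio (400 nm excitation); IC50 from sigmoid curve fit.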

CDK2/cyclinA = target: T2, CDK2/cyclinA (Homo sapiens, UniProt P24941); assay: Z'-LYTE kinase assay CDK2/cyclinA; format: biochemical
T2 construct: purchased Invitrogen PV3267
Outline: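 Recombinant human CDK2/cyclinA (Invitrogen PV3267) at 8 ng/reaction was incubated with Z′-LYTE™ Ser/Thr 12 Peptide and ATP in 384-well plates holding diluted test compounds for 1 hr at room temperature. Buffer contained 20 μM ATP, HEPES pH 7.5, 5 mM MgCl2, 0.5 mM EGTA and 0.005% Brij-35. IC50 came from sigmoid curve fitting in Origin 6.0.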

CDK5/p35 = target: T3, CDK5/p35 (Homo sapiens, UniProt Q00535); assay: Z'-LYTE kinase assay CDK5/p35; format: biochemical
T3 construct: purchased Invitrogen PV3000
Outline: as §1

Aurora A = target: T4, Aurora A (Homo sapiens, UniProt O14965); assay: Z'-LYTE kinase assay Aurora A; format: biochemical
T4 construct: purchased Invitrogen PV3612
T4 sequence (O14965 1-403): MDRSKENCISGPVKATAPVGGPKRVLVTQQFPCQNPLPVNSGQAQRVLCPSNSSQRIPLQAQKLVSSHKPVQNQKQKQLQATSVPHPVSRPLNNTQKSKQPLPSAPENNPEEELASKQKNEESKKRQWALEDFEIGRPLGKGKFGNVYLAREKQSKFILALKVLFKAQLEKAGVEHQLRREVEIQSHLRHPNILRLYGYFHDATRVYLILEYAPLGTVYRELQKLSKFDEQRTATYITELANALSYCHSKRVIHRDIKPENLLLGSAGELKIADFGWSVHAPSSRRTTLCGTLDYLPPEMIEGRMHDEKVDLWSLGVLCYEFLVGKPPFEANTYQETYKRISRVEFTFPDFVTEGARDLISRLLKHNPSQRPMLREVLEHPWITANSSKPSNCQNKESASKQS
Outline: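 Recombinant human Aurora A (PV3612, Invitrogen) was assayed with a Z′-LYTE™ kinase kit at 16 ng/reaction using Ser/Thr 1 Peptide substrate. Enzyme, peptide and ATP were added to 384-well plates with diluted compounds and incubated 1 hr at room temperature in buffer containing 20 μM ATP, HEPES pH 7.5, 5 mM MgCl2, 0.5 mM EGTA and 0.005% Brij-35.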

Aurora B = Aurora B (Homo sapiens, UniProt Q96GD4); assay: Kinase assay Aurora B (Table I); format: biochemical
H460-luc = assay: 72 h MTT cytotoxicity assay H460-luc; format: cell-based; conditions: Homo sapiens
Source text: MIT cytotoxicity assay. The compounds of the invention were subjected to a standard cellular proliferation assay using human cell lines. HeLa cells (Human cervix adenocarcinoma cell line, ATCC NO, CCL-2); A549 cells (Human lung carcinoma cells line, ATCC NO, CCL-185); U2OS cells (Human osteosarcoma cell line, ATCC NO, HTB-96); Eca-109 cells (Human esophageal carcinoma cell line); HepG2 (Human hepatocellular liver carcinoma cell line, ATCC NO, HB-8065); K562 cells (Human chronic myelogenous leukemia cell line, ATCC NO, CCL-243); SK-MEL-28 (Human malignant melanoma cell line, ATCC NO, HTB-72); Molt-4 (Human acute lymphoblastic leukemia cell line, ATCC NO, CRL-1582); H460 (Human large cell lung cancer cell line, ATCC NO, HTB-177); MDA-MB-231 (Human breast adenocarcinoma cell line, ATCC NO, HTB-26); MCF7 (Human breast adenocarcinoma cell line, ATCC NO, HTB-22); ACHN (Human renal cell adenocarcinoma cell line, ATCC NO, CRL-1611); PC-3M (Human prostate adenocarcinoma cell line, ATCC NO CRL-1435); HL60 (Human acute promyelocytic leukemia cell line, ATCC NO, CCL-240); THP-1 (Human acute monocytic leukemia, ATCC NO, TIB-202); Jurkat (Human acute T cell leukemia cell line, ATCC NO, CRL-2063); HCT-116 (Human colorectal carcinoma cell line, ATCC NO, CCL-247); HT-29 (Human colorectal adenocarcinoma cell line, ATCC NO, HTB-38™); WI-38 (Human normal lung cell line, ATCC NO, CCL-75); MRC-5 (Human normal lung cell line, ATCC NO, CCL-171).
HepG2, MDA-MB-231, WI-38 and MRC-5 cells were obtained from Shanghai Institute of Cell Biology, Chinese Academy of Sciences (Shanghai 200031, China). A549, HeLa, K562, MCF7, ACHN, H460, U2OS, Eca-109, MCF7, HL60, THP-1, Jurkat, HCT-116, HT-29, PC-3M, SK-MEL-28, Molt-4, H460 and […] cells were purchased from ATCC (American Type Culture Collection, USA).
Standard 72 h MTT (thiazolye blue; 3-[4,5-dimethylthiazol-2-yl]-2,5-diphenyltetrazolium bromide) assays were performed. Briefly, the cell lines used in this study were recovered and cultured according to the conditions recommended. 4000 cells per well were seeded into 96-well plates according to doubling time and incubated overnight at 37° C. Compounds were prepared in DMSO and a ½ dilution series in 100 μl cell culture media, added to cells (in duplicates) with the final DMSO concentration of 0.025%, and incubated for 72 hrs at 37° C. MTT solution (5 mg/ml) was added at 10 μl per well and incubated in the dark at 37° C. for 4 hr. Culture medium and MTT solution was removed. MTT dye was solubilised with 100 μl per well of DMSO with agitation. Absorbance was read at 562 nm and data analyzed using Sigmoid curve-fitting software Origin 6.0 (MicroCal, LLC, USA) to determine IC50 value.

[1] = read-out: Kinase inhibition, IC50 CDK1B
[2] = read-out: Kinase inhibition, IC50 CDK2A
[3] = read-out: Kinase inhibition, IC50 CDK5/p35
[4] = read-out: Kinase inhibition, IC50 Aurora A
[5] = read-out: Kinase inhibition, IC50 Aurora B
[6] = NCI-H460-Luc, H460-luc, 72 hrs, read-out: Cytotoxicity, MTT 72 hrs, IC50 H460-luc
[7] = Table III, read-out: Target biochemical activity IC50 CDK1
[8] = Table III, read-out: Target biochemical activity IC50 CDK2
[9] = Table III, read-out: Target biochemical activity IC50 CDK5
[10] = Table III, read-out: Target biochemical activity IC50 Aurora A
[11] = Table III, read-out: Target biochemical activity IC50 Aurora B
[12] = H460, Table III, read-out: Cellular effect in mammalian cells IC50 H460

T1 sequence (P06493 whole entry): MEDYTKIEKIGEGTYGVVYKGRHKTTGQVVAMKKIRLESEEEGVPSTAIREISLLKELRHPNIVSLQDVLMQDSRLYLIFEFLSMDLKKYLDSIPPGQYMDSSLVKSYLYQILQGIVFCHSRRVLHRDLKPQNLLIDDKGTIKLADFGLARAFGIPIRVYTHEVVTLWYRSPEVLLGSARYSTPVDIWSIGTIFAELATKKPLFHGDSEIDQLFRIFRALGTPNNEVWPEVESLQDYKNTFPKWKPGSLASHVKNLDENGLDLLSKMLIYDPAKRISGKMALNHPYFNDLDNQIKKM
T1 sequence (P14635 whole entry partner): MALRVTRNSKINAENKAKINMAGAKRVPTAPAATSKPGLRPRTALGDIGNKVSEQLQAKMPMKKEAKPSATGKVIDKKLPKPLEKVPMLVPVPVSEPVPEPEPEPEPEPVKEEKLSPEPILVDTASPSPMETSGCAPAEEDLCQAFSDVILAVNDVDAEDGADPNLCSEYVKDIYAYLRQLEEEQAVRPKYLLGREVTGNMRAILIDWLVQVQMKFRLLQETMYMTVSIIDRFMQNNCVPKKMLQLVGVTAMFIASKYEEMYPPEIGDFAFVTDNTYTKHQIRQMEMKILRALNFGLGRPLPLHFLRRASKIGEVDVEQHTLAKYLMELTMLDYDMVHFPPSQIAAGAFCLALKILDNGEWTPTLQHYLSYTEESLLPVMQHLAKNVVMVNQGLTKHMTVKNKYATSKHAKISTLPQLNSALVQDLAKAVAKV
T3 sequence (Q00535 whole entry): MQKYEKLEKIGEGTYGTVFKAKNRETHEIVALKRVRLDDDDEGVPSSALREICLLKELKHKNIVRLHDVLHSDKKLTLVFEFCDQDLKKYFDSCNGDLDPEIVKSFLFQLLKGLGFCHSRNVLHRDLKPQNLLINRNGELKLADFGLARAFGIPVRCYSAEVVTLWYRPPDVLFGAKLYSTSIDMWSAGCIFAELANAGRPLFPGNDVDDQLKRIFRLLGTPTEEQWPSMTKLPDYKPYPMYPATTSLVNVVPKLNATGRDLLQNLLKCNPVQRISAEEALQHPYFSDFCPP
T3 sequence (Q15078 whole entry partner): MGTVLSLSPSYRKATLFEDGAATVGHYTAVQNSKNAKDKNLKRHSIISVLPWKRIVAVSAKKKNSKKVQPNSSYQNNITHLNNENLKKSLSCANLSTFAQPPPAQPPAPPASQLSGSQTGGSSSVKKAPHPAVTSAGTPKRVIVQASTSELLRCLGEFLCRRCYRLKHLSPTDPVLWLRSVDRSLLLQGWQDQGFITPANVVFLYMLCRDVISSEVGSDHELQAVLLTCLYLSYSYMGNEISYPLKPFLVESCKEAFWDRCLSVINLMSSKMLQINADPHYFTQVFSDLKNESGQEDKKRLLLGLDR
Aurora B, sequence (Q96GD4 whole entry): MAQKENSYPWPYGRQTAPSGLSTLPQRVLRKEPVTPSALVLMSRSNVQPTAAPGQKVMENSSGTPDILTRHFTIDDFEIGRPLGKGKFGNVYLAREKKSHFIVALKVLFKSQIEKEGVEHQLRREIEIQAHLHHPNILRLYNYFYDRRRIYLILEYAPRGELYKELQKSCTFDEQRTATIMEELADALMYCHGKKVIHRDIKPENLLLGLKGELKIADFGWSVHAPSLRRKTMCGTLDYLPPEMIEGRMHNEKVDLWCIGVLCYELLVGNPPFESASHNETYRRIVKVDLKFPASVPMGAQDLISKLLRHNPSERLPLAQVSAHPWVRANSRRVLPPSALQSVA

Row | Structure (SMILES) | IC50 (CDK1/cyclinB; [1]) [nM] | IC50 (CDK2/cyclinA; [2]) [nM] | IC50 (CDK5/p35; [3]) [nM] | IC50 (Aurora A; [4]) [nM] | IC50 (Aurora B; [5]) [nM] | IC50 (CDK1/cyclinB; [7]) [nM] | IC50 (CDK2/cyclinA; [8]) [nM] | IC50 (CDK5/p35; [9]) [nM] | IC50 (Aurora A; [10]) [nM] | IC50 (Aurora B; [11]) [nM] | IC50 (H460-luc; [6]) [nM] | IC50 (H460-luc; [12]) [nM]
1 | CCCn1cc(-c2ccnc(Nc3cccc(S(N)(=O)=O)c3)n2)c2ccncc21 [SG51] | – | – | – | – | – | 0.4 | 0.5 | 0.5 | 50 | 59 | – | < 100
2 | CCCn1cc(-c2ccnc(Nc3ccc(C)c(S(=O)(=O)N4CCOCC4)c3)n2)c2cccnc21 [Compound 24, N-(4-Methyl-3-(morpholinosulfonyl)phenyl)-4-(1-propyl-1H-pyrrolo[2,3-b]pyridin-3-yl)pyrimidin-2-amine] | 5190 | 4580 | 8900 | 9440 | ≥ 10000 | – | – | – | – | – | 1410 | –
3 | CCCn1cc(-c2ccnc(Nc3cccc(S(N)(=O)=O)c3)n2)c2nc(Cl)cc(C)c21 [SG53] | – | – | – | – | – | 6840 | > 10000 | > 10000 | 98 | 190 | – | 2000
4 | CCCn1cc(-c2ccnc(Nc3cccc(S(N)(=O)=O)c3)n2)c2nc(Cl)cc(C)c21 [Compound 42, 3-(4-(5-Chloro-7-methyl-1-propyl-1H-pyrrolo[3,2-b]pyridin-3-yl)pyrimidin-2-ylamino)benzenesulfonamide] | 6840 | > 10000 | > 10000 | 98 | 190 | – | – | – | – | – | 2000 | –
5 | CCCn1cc(-c2ccnc(Nc3ccc(C)c(S(=O)(=O)N4CCOCC4)c3)n2)c2ccncc21 [SG52] | – | – | – | – | – | 70 | 30 | 25 | 1650 | 1000 | – | 220
6 | CCCn1cc(-c2ccnc(Nc3ccc(S(N)(=O)=O)cc3)n2)c2nc(Cl)cc(C)c21 [SG54] | – | – | – | – | – | > 10000 | 1670 | > 10000 | 620 | 320 | – | 1030
7 | CCCn1cc(-c2ccnc(Nc3cccc(O)c3)n2)c2cccnc21 [Compound 16, 3-(4-(1-Propyl-1H-pyrrolo[2,3-b]pyridin-3-yl)pyrimidin-2-ylamino)phenol] | 1360 | 6 | 2320 | > 10000 | 1250 | – | – | – | – | – | 4060 | –
8 | CCCn1cc(-c2ccnc(Nc3ccc(O)cc3)n2)c2cccnc21 [Compound 15, 4-(4-(1-Propyl-1H-pyrrolo[2,3-b]pyridin-3-yl)pyrimidin-2-ylamino)phenol] | 1670 | 28 | 2240 | 210 | 670 | – | – | – | – | – | 4980 | –
9 | CCn1cc(-c2ccnc(Nc3cccc(C#N)c3)n2)c2cccnc21 [Compound 20, 3-(4-(1-Ethyl-1H-pyrrolo[2,3-b]pyridin-3-yl)pyrimidin-2-ylamino)benzonitrile] | 7010 | 3480 | 4610 | 6990 | > 10000 | – | – | – | – | – | > 10000 | –

The next lines start with results.

Row | IC50 (CDK1/cyclinB; [1]) [nM] | IC50 (CDK2/cyclinA; [2]) [nM] | IC50 (CDK5/p35; [3]) [nM] | IC50 (Aurora A; [4]) [nM] | IC50 (Aurora B; [5]) [nM] | IC50 (CDK1/cyclinB; [7]) [nM] | IC50 (CDK2/cyclinA; [8]) [nM] | IC50 (CDK5/p35; [9]) [nM] | IC50 (Aurora A; [10]) [nM] | IC50 (Aurora B; [11]) [nM] | Structure (SMILES) | IC50 (H460-luc; [6]) [nM] | IC50 (H460-luc; [12]) [nM]
10 | < 0.1 | < 0.1 | 20 | 800 | > 10000 | – | – | – | – | – | CCCn1cc(-c2ccnc(Nc3cccc(S(N)(=O)=O)c3)n2)c2ccnc(Cl)c21 [Compound 96, 3-(4-(7-chloro-1-propyl-1H-pyrrolo[2,3-c]pyridin-3-yl)pyrimidin-2-ylamino)benzenesulfonamide] | 260 | –
11 | 0.4 | 10 | 1.3 | 820 | 1.6 | – | – | – | – | – | CCCn1cc(-c2ccnc(Nc3ccc(S(N)(=O)=O)cc3)n2)c2ccncc21 [Compound 112, 4-(4-(1-Propyl-1H-pyrrolo[2,3-c]pyridin-3-yl)pyrimidin-2-ylamino)benzenesulfonamide] | 20 | –
12 | 624 | 3 | 271 | 30 | 700 | 624 | 3 | 271 | 30 | 700 | CCn1cc(-c2ccnc(Nc3cccc(S(N)(=O)=O)c3)n2)c2cccnc21 [Compound 18, 3-(4-(1-Ethyl-1H-pyrrolo[2,3-b]pyridin-3-yl)pyrimidin-2-ylamino)benzenesulfonamide] | 1270 | 1270
13 | 70 | 30 | 25 | 1650 | 3420 | – | – | – | – | – | CCCn1cc(-c2ccnc(Nc3ccc(C)c(S(=O)(=O)N4CCOCC4)c3)n2)c2ccncc21 [Compound 102, N-(4-Methyl-3-(morpholinosulfonyl)phenyl)-4-(1-propyl-1H-pyrrolo[2,3-c]pyridin-3-yl)pyrimidin-2-amine] | 220 | –
14 | 0.4 | 0.5 | 0.5 | 50 | 59 | – | – | – | – | – | CCCn1cc(-c2ccnc(Nc3cccc(S(N)(=O)=O)c3)n2)c2ccncc21 [Compound 111, 3-(4-(1-Propyl-1H-pyrrolo[2,3-c]pyridin-3-yl)pyrimidin-2-ylamino)benzenesulfonamide] | 6 | –
15 | 450 | 190 | 400 | 8 | 3600 | – | – | – | – | – | CCCn1cc(-c2ccnc(Nc3cccc(S(N)(=O)=O)c3)n2)c2cccnc21 [Compound 22, 3-(4-(1-Propyl-1H-pyrrolo[2,3-b]pyridin-3-yl)pyrimidin-2-ylamino)benzenesulfonamide] | 1110 | –
